Source: PubChem BioAssay (NCI)
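Compound exposure: 48 hours, 5 concentrations, 96-well plates. TGI denotes the concentration required for complete inhibition of growth.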

Assays:
Experiment in all cases: inhibition of tumour cell growth, NCI panel, 48 h
MCF7 breast = tested on: MCF7 breast
DMS 114 small cell lung = tested on: DMS 114 small cell lung
DLD-1 colon = tested on: DLD-1 colon
RPMI-8226 leukemia = tested on: RPMI-8226 leukemia
XF 498 CNS = tested on: XF 498 CNS
HCT-116 colon = tested on: HCT-116 colon
HCC-2998 colon = tested on: HCC-2998 colon
KM20L2 colon = tested on: KM20L2 colon
CAKI-1 renal = tested on: CAKI-1 renal
SF-295 CNS = tested on: SF-295 CNS
HOP-18 NSCLC = tested on: HOP-18 NSCLC
SR leukemia = tested on: SR leukemia
786-0 renal = tested on: 786-0 renal
LXFL 529 NSCLC = tested on: LXFL 529 NSCLC

## CC1[C@@H]2C[C@@H]3O[C@@]34[C@H]3CCC5Cc6nc7c(nc6C[C@@]5(C)C3(O)CC(=O)[C@@]24CO[C@]12OC(C)(C)CC2O)CC1CC[C@@H]2C3=C[C@H]4O[C@@]5(O[C@@](C)(CO)C[C@@H]5O)C(C)[C@@]4(O)[C@]3(C)[C@@H](O)CC2[C@]1(C)C7 (stereo partly specified)
MCF7 breast
  TGI: > 3.52 µM
DMS 114 small cell lung
  TGI: 1.09 µM
DLD-1 colon
  TGI: > 3.52 µM
RPMI-8226 leukemia
  TGI: > 3.52 µM
XF 498 CNS
  TGI: 0.0328 µM
HCT-116 colon
  TGI: > 3.52 µM
HCC-2998 colon
  TGI: > 3.52 µM
KM20L2 colon
  TGI: 0.244 µM
CAKI-1 renal
  TGI: > 3.52 µM
SF-295 CNS
  TGI: 0.0164 µM
HOP-18 NSCLC
  TGI: > 3.52 µM

## Cc1cc(N)c2cc(NC(=O)CCCCCCCCC(=O)Nc3ccc4nc(C)cc(N)c4c3)ccc2n1
SR leukemia
  TGI: > 100 µM
DLD-1 colon
  TGI: > 100 µM
RPMI-8226 leukemia
  TGI: > 100 µM
XF 498 CNS
  TGI: > 100 µM
786-0 renal
  TGI: > 100 µM
HCT-116 colon
  TGI: > 79 µM
HCC-2998 colon
  TGI: > 82.9 µM
KM20L2 colon
  TGI: > 74.3 µM
CAKI-1 renal
  TGI: > 100 µM
SF-295 CNS
  TGI: > 88.7 µM
HOP-18 NSCLC
  TGI: > 100 µM
LXFL 529 NSCLC
  TGI: > 100 µM

## CN(C)CCSc1nccc(-c2ccc(-c3ccnc(SCCN(C)C)n3)s2)n1
MCF7 breast
  TGI: 16.9 µM
DMS 114 small cell lung
  TGI: 25.5 µM
DLD-1 colon
  TGI: 23 µM
RPMI-8226 leukemia
  TGI: 10.1 µM
XF 498 CNS
  TGI: 29.4 µM
HCT-116 colon
  TGI: 13.1 µM
HCC-2998 colon
  TGI: 18.6 µM
KM20L2 colon
  TGI: 23.6 µM
CAKI-1 renal
  TGI: 33.1 µM
SF-295 CNS
  TGI: 26 µM
HOP-18 NSCLC
  TGI: 67.2 µM

## O=c1cc(-c2ccccc2)[nH]c2c(F)ccc(F)c12
SR leukemia
  TGI: 90.3 µM
DMS 114 small cell lung
  TGI: > 100 µM
DLD-1 colon
  TGI: > 100 µM
RPMI-8226 leukemia
  TGI: > 100 µM
786-0 renal
  TGI: > 100 µM
HCT-116 colon
  TGI: > 100 µM
CAKI-1 renal
  TGI: > 100 µM
SF-295 CNS
  TGI: > 100 µM
HOP-18 NSCLC
  TGI: > 100 µM
LXFL 529 NSCLC
  TGI: > 100 µM

## C[S+](C)C1(c2ccccc2)C(=O)c2ccccc2C1=O
SR leukemia
  TGI: > 100 µM
MCF7 breast
  TGI: > 100 µM
DMS 114 small cell lung
  TGI: > 100 µM
DLD-1 colon
  TGI: > 100 µM
RPMI-8226 leukemia
  TGI: > 100 µM
XF 498 CNS
  TGI: 94 µM
786-0 renal
  TGI: > 100 µM
HCT-116 colon
  TGI: > 100 µM
HCC-2998 colon
  TGI: 42.8 µM
KM20L2 colon
  TGI: > 100 µM
CAKI-1 renal
  TGI: > 100 µM
SF-295 CNS
  TGI: 99.2 µM
HOP-18 NSCLC
  TGI: > 100 µM
LXFL 529 NSCLC
  TGI: > 100 µM

## Cc1cc(=O)oc2c(CN(CCCl)CCCl)c(O)ccc12
SR leukemia
  TGI: > 100 µM
MCF7 breast
  TGI: > 100 µM
RPMI-8226 leukemia
  TGI: 63.6 µM
786-0 renal
  TGI: > 100 µM
HCT-116 colon
  TGI: > 100 µM
HCC-2998 colon
  TGI: > 100 µM
CAKI-1 renal
  TGI: > 100 µM
SF-295 CNS
  TGI: > 100 µM
